From the supplement of paper PMC10307832

Assays:
Test in all cases: relative viability (nuclei count vs DMSO), 5 days (fraction); higher = more cells survive
HOP-62 = tested on: HOP-62
In short: (§1)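 Lung cancer cell lines were seeded in 1536-well plates and dosed by pin tool the next day, with either a single drug or a fixed anchor-drug dose combined with five library-drug doses (not always all listed) spaced in √10 steps. Five days later, one step fixed the cells and stained their nuclei (final 0.05% Triton X-100, 1% formaldehyde, 1 ug/ml Hoechst), and nuclei were counted on 4× images. Relative viability is the nuclei count in treated wells divided by the count in vehicle wells, and each value is the median of duplicate plates.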

H3255 = tested on: H3255
In short: as §1

NCI-H2009 = tested on: NCI-H2009
In short: as §1

NCI-H727 = tested on: NCI-H727
In short: as §1

NCI-H2347 = tested on: NCI-H2347
In short: as §1

NCI-H1734 = tested on: NCI-H1734
In short: as §1

NCI-H647 = tested on: NCI-H647
In short: as §1

PC-14 = tested on: PC-14
In short: as §1

NCI-H2126 = tested on: NCI-H2126
In short: as §1

LCLC-97TM1 = tested on: LCLC-97TM1
In short: as §1

NCI-H1993 = tested on: NCI-H1993
In short: as §1

NCI-H1563 = tested on: NCI-H1563
In short: as §1

NCI-H661 = tested on: NCI-H661
In short: as §1

SK-LU-1 = tested on: SK-LU-1
In short: as §1

NCI-H2023 = tested on: NCI-H2023
In short: as §1

NCI-H1915 = tested on: NCI-H1915
In short: as §1

SW 1573 = tested on: SW 1573
In short: as §1

NCI-H322M = tested on: NCI-H322M
In short: as §1

EPLC-272H = tested on: EPLC-272H
In short: as §1

NCI-H2085 = tested on: NCI-H2085
In short: as §1

LXF-289 = tested on: LXF-289
In short: as §1

EMC-BAC-2 = tested on: EMC-BAC-2
In short: as §1

Nc1ccn([C@@H]2O[C@H](CO)[C@@H](O)[C@@H]2O)c(=O)n1 [Cytarabine] + C[C@]1(O)C[C@@H](c2nc(-c3ccc4ccc(-c5ccccc5)nc4c3)c3c(N)nccn32)C1 [Linsitinib] (partner 1 µM)
relative viability (HOP-62; first compound 0.005 µM): 0.781
relative viability (HOP-62; first compound 0.01581 µM): 0.666
relative viability (HOP-62; first compound 0.05 µM): 0.257
relative viability (HOP-62; first compound 0.1581 µM): 0.124
relative viability (HOP-62; first compound 0.5 µM): 0.0827
relative viability (H3255; first compound 0.005 µM): 0.945
relative viability (H3255; first compound 0.01581 µM): 0.885
relative viability (H3255; first compound 0.05 µM): 0.808
relative viability (H3255; first compound 0.1581 µM): 0.784
relative viability (H3255; first compound 0.5 µM): 0.674
relative viability (NCI-H2009; first compound 0.005 µM): 1.11
relative viability (NCI-H2009; first compound 0.01581 µM): 1.12
relative viability (NCI-H2009; first compound 0.05 µM): 1.19
relative viability (NCI-H2009; first compound 0.1581 µM): 0.83
relative viability (NCI-H2009; first compound 0.5 µM): 0.411
relative viability (NCI-H727; first compound 0.005 µM): 0.251
relative viability (NCI-H727; first compound 0.01581 µM): 0.254
relative viability (NCI-H727; first compound 0.05 µM): 0.318
relative viability (NCI-H727; first compound 0.1581 µM): 0.19
relative viability (NCI-H727; first compound 0.5 µM): 0.215
relative viability (NCI-H2347; first compound 0.005 µM): 1.02
relative viability (NCI-H2347; first compound 0.01581 µM): 0.932
relative viability (NCI-H2347; first compound 0.05 µM): 0.822
relative viability (NCI-H2347; first compound 0.1581 µM): 0.32
relative viability (NCI-H2347; first compound 0.5 µM): 0.649
relative viability (NCI-H1734; first compound 0.005 µM): 0.512
relative viability (NCI-H1734; first compound 0.01581 µM): 0.328
relative viability (NCI-H1734; first compound 0.05 µM): 0.257
relative viability (NCI-H1734; first compound 0.1581 µM): 0.141
relative viability (NCI-H1734; first compound 0.5 µM): 0.128
relative viability (NCI-H647; first compound 0.005 µM): 0.729
relative viability (NCI-H647; first compound 0.01581 µM): 0.55
relative viability (NCI-H647; first compound 0.05 µM): 0.394
relative viability (NCI-H647; first compound 0.1581 µM): 0.148
relative viability (NCI-H647; first compound 0.5 µM): 0.061
relative viability (PC-14; first compound 0.005 µM): 0.967
relative viability (PC-14; first compound 0.01581 µM): 0.862
relative viability (PC-14; first compound 0.05 µM): 0.761
relative viability (PC-14; first compound 0.1581 µM): 0.436
relative viability (PC-14; first compound 0.5 µM): 0.464
relative viability (NCI-H2126; first compound 0.005 µM): 0.71
relative viability (NCI-H2126; first compound 0.01581 µM): 0.661
relative viability (NCI-H2126; first compound 0.05 µM): 0.647
relative viability (NCI-H2126; first compound 0.1581 µM): 0.486
relative viability (NCI-H2126; first compound 0.5 µM): 0.474
relative viability (LCLC-97TM1; first compound 0.005 µM): 0.167
relative viability (LCLC-97TM1; first compound 0.01581 µM): 0.148
relative viability (LCLC-97TM1; first compound 0.05 µM): 0.111
relative viability (LCLC-97TM1; first compound 0.1581 µM): 0.101
relative viability (LCLC-97TM1; first compound 0.5 µM): 0.0967
relative viability (NCI-H1993; first compound 0.005 µM): 0.703
relative viability (NCI-H1993; first compound 0.01581 µM): 0.795
relative viability (NCI-H1993; first compound 0.05 µM): 0.672
relative viability (NCI-H1993; first compound 0.1581 µM): 0.539
relative viability (NCI-H1993; first compound 0.5 µM): 0.471
relative viability (NCI-H1563; first compound 0.005 µM): 1.14
relative viability (NCI-H1563; first compound 0.01581 µM): 1.3
relative viability (NCI-H1563; first compound 0.05 µM): 1.04
relative viability (NCI-H1563; first compound 0.1581 µM): 1
relative viability (NCI-H1563; first compound 0.5 µM): 0.769
relative viability (NCI-H661; first compound 0.005 µM): 0.624
relative viability (NCI-H661; first compound 0.01581 µM): 0.529
relative viability (NCI-H661; first compound 0.05 µM): 0.445
relative viability (NCI-H661; first compound 0.1581 µM): 0.286
relative viability (NCI-H661; first compound 0.5 µM): 0.21
relative viability (SK-LU-1; first compound 0.005 µM): 0.954
relative viability (SK-LU-1; first compound 0.01581 µM): 0.918
relative viability (SK-LU-1; first compound 0.05 µM): 0.922
relative viability (SK-LU-1; first compound 0.1581 µM): 0.476
relative viability (SK-LU-1; first compound 0.5 µM): 0.39
relative viability (NCI-H2023; first compound 0.005 µM): 0.492
relative viability (NCI-H2023; first compound 0.01581 µM): 0.302
relative viability (NCI-H2023; first compound 0.05 µM): 0.149
relative viability (NCI-H2023; first compound 0.1581 µM): 0.0967
relative viability (NCI-H2023; first compound 0.5 µM): 0.0876
relative viability (NCI-H1915; first compound 0.005 µM): 1.1
relative viability (NCI-H1915; first compound 0.01581 µM): 0.979
relative viability (NCI-H1915; first compound 0.05 µM): 0.842
relative viability (NCI-H1915; first compound 0.1581 µM): 0.54
relative viability (NCI-H1915; first compound 0.5 µM): 0.388
relative viability (SW 1573; first compound 0.005 µM): 0.831
relative viability (SW 1573; first compound 0.01581 µM): 0.664
relative viability (SW 1573; first compound 0.05 µM): 0.621
relative viability (SW 1573; first compound 0.1581 µM): 0.369
relative viability (SW 1573; first compound 0.5 µM): 0.149
relative viability (NCI-H322M; first compound 0.005 µM): 0.822
relative viability (NCI-H322M; first compound 0.01581 µM): 0.707
relative viability (NCI-H322M; first compound 0.05 µM): 0.628
relative viability (NCI-H322M; first compound 0.1581 µM): 0.464
relative viability (NCI-H322M; first compound 0.5 µM): 0.43
relative viability (EPLC-272H; first compound 0.005 µM): 0.883
relative viability (EPLC-272H; first compound 0.01581 µM): 0.834
relative viability (EPLC-272H; first compound 0.05 µM): 0.945
relative viability (EPLC-272H; first compound 0.1581 µM): 0.522
relative viability (EPLC-272H; first compound 0.5 µM): 0.532
relative viability (NCI-H2085; first compound 0.005 µM): 0.677
relative viability (NCI-H2085; first compound 0.01581 µM): 0.89
relative viability (NCI-H2085; first compound 0.05 µM): 0.859
relative viability (NCI-H2085; first compound 0.1581 µM): 0.585
relative viability (NCI-H2085; first compound 0.5 µM): 0.55
relative viability (LXF-289; first compound 0.005 µM): 0.859
relative viability (LXF-289; first compound 0.01581 µM): 0.945
relative viability (LXF-289; first compound 0.05 µM): 0.786
relative viability (LXF-289; first compound 0.1581 µM): 0.493
relative viability (LXF-289; first compound 0.5 µM): 0.279
relative viability (EMC-BAC-2; first compound 0.005 µM): 0.695
relative viability (EMC-BAC-2; first compound 0.01581 µM): 0.751
relative viability (EMC-BAC-2; first compound 0.05 µM): 0.688
relative viability (EMC-BAC-2; first compound 0.1581 µM): 0.295
relative viability (EMC-BAC-2; first compound 0.5 µM): 0.247
